{"source": "paper PMC2266763", "about": "“Dimerization of the transmembrane domain of amyloid precursor proteins and familial Alzheimer's disease mutants” (BMC Neuroscience, 2008)", "molecules": {"B1": {"name": "wild-type APP-TM peptide (peptide)", "peptide": "GAIIGLMVGGVVIATVIVITLVML-{Lys‑tag}", "modifications": "not fully specified (N-terminus); reading uncertain", "notes": "amyloid precursor protein (APP), human, residues 700 to 723, contain the TM segment; Two versions were synthesised: Lys-tag-W-(700-723)-Lys-tag (FRET donor) and Lys-tag-E(EDANS)-(700-723)-Lys-tag (FRET acceptor); also called wild-type APP transmembrane domain peptide; source: synthetic peptide (solid-phase synthesis, purified by reverse phase C4-HPLC); not shown: oligo-lysine tag (Lys-tag), …"}, "B2": {"name": "V717F APP-TM peptide (peptide)", "peptide": "GAIIGLMVGGVVIATVIFITLVML-{Lys‑tag}", "modifications": "not fully specified (N-terminus); reading uncertain", "notes": "amyloid precursor protein (APP), human, residues 700 to 723 with the familial Alzheimer's disease mutation V717F; Two versions (Trp donor, Glu-EDANS acceptor) as for m1; Said to be soluble only in the presence of SDS; source: synthetic peptide (solid-phase synthesis, purified by reverse phase C4-HPLC); not shown: oligo-lysine tag (Lys-tag), N-terminal, kept; Trp (donor version) or Glu-EDANS …"}, "B3": {"name": "V717G APP-TM peptide (peptide)", "peptide": "GAIIGLMVGGVVIATVIGITLVML-{Lys‑tag}", "modifications": "not fully specified (N-terminus); reading uncertain", "notes": "amyloid precursor protein (APP), human, residues 700 to 723 with the familial Alzheimer's disease mutation V717G; Two versions (Trp donor, Glu-EDANS acceptor) as for m1; source: synthetic peptide (solid-phase synthesis, purified by reverse phase C4-HPLC); not shown: oligo-lysine tag (Lys-tag), N-terminal, kept; Trp (donor version) or Glu-EDANS (acceptor version), N-terminal, kept; oligo-lysine …"}}, "key": {"[1]": {"system": "APP-TM dimer (self-association)", "experiment": "FRET dimer dissociation, APP-TM peptides in SDS micelles", "assay_type": "binding, human", "conditions": "for Kd: concentration dependence of FRET (Trp donor / EDANS acceptor, equimolar), 20 mM SDS, 40 mM Tris, 8 mM Acetate (pH 7.0), 0 – 90 μM peptide, overnight, room temperature, average error 3.6%, read-out: Apparent dimer dissociation constant", "procedure": "(§1) Mixed peptide-SDS micelles were prepared by the addition of concentrated SDS to peptide solutions, such that the final concentrations were 20 mM SDS, 40 mM Tris, 8 mM Acetate (pH 7.0) and 0 – 90 μM peptide. The samples were sonicated and incubated overnight in the dark at room temperature before making fluorescence measurements.\n(§2) Fluorescence measurements were made at room temperature using a PTI QM-1 fluorescence spectrophotometer. A quartz cuvette with a 2 mm excitation pathlength and a 1 cm emission pathlength was used. The excitation wavelength was 285 nm and the bandpass was 4 nm. We obtained a quantitative measure of the degree of peptide oligomerization by integrating the EDANS emission signal from 472–496 nm and dividing this value with the integrated Trp emission signal from 350–375 nm. This ratio of acceptor fluorescence to donor fluorescence is denoted either as Acceptor/Donor ratio or A/D ratio and can be used to compare peptide oligomerization at varying concentrations.\nThe apparent dissociation constants were determined using an equation derived from first principles of monomer-dimer equilibrium, where Kd = [A]^2/[A2]. The fluorescence acceptor-donor ratio was plotted against total peptide concentration and fit to the following equation:\n[AT]=Kd(Fobs−Fmin/Fmax−Fmin)/2(1−Fobs−Fmin/Fmax−Fmin)^2\nWhere AT = total APP-TM peptide concentration, F = A/D ratio, fraction dimer = (Fobs-Fmin)/Fmax-Fmin), and % dimer = 100% (fraction dimer). The goodness-of-fit to the model were assessed using the chi-squared test, nonlinear least squares correlation, and examination of residuals."}, "[2]": {"system": "APP-TM dimer (self-association)", "experiment": "SDS-PAGE oligomeric state", "assay_type": "binding, human", "conditions": "20 mM SDS; for Oligomeric state by SDS-PAGE: 40 mM Tris, 8 mM Acetate (pH 7.0), 5% glycerol, 0 – 25 μM peptide, boiled 5 minutes; for Oligomeric state by SDS-PAGE, concentration range: at different concentrations (0 – 25 μM peptide), pH 7.0", "procedure": "Samples contained 20 mM SDS, 40 mM Tris, 8 mM Acetate (pH 7.0), 5% glycerol, and 0 – 25 μM peptide. They were boiled for 5 minutes and subjected to SDS-PAGE using precast 4–12% Nupage gels (Invitrogen) and a standard running buffer. SeeBlue®Plus2 molecular weight markers from Invitrogen were used as standards."}, "[3]": {"experiment": "Solubility of APP-TM peptides", "assay_type": "physicochemical"}, "wild-type APP-TM peptide [4]": {"system": "wild-type APP-TM peptide", "experiment": "FRET hetero-oligomerization of wild-type and mutant APP-TM peptides", "assay_type": "binding, human", "conditions": "Trp-labeled wild-type with EDANS-labeled V717G, constant 1:1 ratio, 20 mM SDS", "procedure": "as §1, §2"}, "Aβ40 and Aβ42 production": {"system": "Aβ40 and Aβ42 production", "experiment": "Aβ ELISA immunoassay, HEK293 cells expressing Swedish mutant APP and γ-secretase components", "assay_type": "cell-based, human", "conditions": "for Effect on levels of Aβ (Aβ40 and Aβ42): overnight incubation, 0, 20 or 100 μM peptide, conditioned media; for Effect on levels of Aβ (Aβ40 and Aβ42) / Effect on Aβ42/40 ratio: relative to control samples", "procedure": "Stably transfected HEK293 cells overexpressing the Swedish double mutant (K670N/M671L) of APP751, presenilin 1, nicastrin, PEN-2 and APH-1 were grown to confluency in DMEM media containing 10% fetal bovine serum. The cells were grown for another 48 hours with the media changed twice at equivalent time intervals. Cells were then incubated overnight in fresh media containing 0, 20 or 100 μM APP-TM peptides. The media was collected and subjected to an immunoassay to determine the Aβ42 and Aβ40 concentrations. The ELISA BioSource immunoassay human β-amyloid 1–40/1–42 colorimetric kit (catalogue number KHB3482/KHB3481) was used and the standard protocol was followed. This sandwich ELISA technique makes use of an immobilized Aβ antibody that binds both Aβ40 and Aβ42 at an N-terminal epitope. The bound Aβ40 and Aβ42 are then detected using a C-terminal antibody specific for either Aβ40 or Aβ42. […] Therefore, this assay is ideally suited to detect any disturbances in the normal processing of endogeneuous full length APP in the presence of APP-TM peptides."}, "[5]": {"system": "HEK293 cells stably overexpressing Swedish-mutant APP751 and γ-secretase components", "experiment": "Sulforhodamine B (SRB) cytotoxicity assay", "assay_type": "cell-based", "conditions": "SRB assay, 0, 10, 20, and 100 μM peptide, overnight", "procedure": "Stably transfected HEK293 cells overexpressing Swedish-mutant APP751 and γ-secretase components were plated at 15,000 cells/well in DMEM media containing 10% fetal bovine serum. The cells were grown for another 48 hours with the media changed twice at equivalent time intervals. Cells were then incubated overnight in fresh media containing 0, 10, 20, and 100 μM APP-TM peptides, and the SRB cytotoxicity assay was performed as previously described."}, "[6]": {"system": "APP-TM oligomer (self-association)", "experiment": "FRET of APP-TM peptides in DOPG phospholipid vesicles", "assay_type": "binding, human", "conditions": "1:20 peptide:DOPG, 50 mM Tris, 10 mM NaCl (pH 7.0), room temperature, excitation 285 nm", "procedure": "DOPG vesicles with incorporated peptides were prepared via sonication of dried lipid films in the presence of peptide solution at a molar ratio of 1 mole of peptide: 20 moles of DOPG as previously described. The samples contained 50 mM Tris, 10 mM NaCl (pH 7.0) as the buffer. […] Purified peptide-incorporated vesicle fractions were used for fluorescence measurements.\nas §2"}, "[7]": {"molecular_target": "T714I APP-TM peptide (human)", "experiment": "FRET or BRET; apparent; dimer to monomers; concentration dependence of the A/D ratio in equimolar mixtures of donor- and acceptor-labelled peptide, 20 mM SDS, 40 mM Tris, 8 mM acetate (pH 7.0), 0 – 90 μM peptide, room temperature"}, "[8]": {"molecular_target": "the molecule itself", "experiment": "FRET or BRET; apparent; dimer to monomers; concentration dependence of the A/D ratio in equimolar mixtures of donor- and acceptor-labelled peptide, 20 mM SDS, 40 mM Tris, 8 mM acetate (pH 7.0), 0 – 90 μM peptide, room temperature"}, "[9]": {"molecular_target": "the molecule itself", "experiment": "SDS-PAGE of the oligomeric state; 20 mM SDS, 40 mM Tris, 8 mM acetate (pH 7.0), 5% glycerol, 0 – 25 μM peptide, boiled 5 minutes, 4–12% Nupage gels"}, "[10]": {"molecular_target": "V717F APP-TM peptide (human)", "experiment": "FRET or BRET; apparent; dimer to monomers; concentration dependence of the A/D ratio in equimolar mixtures of donor- and acceptor-labelled peptide, 20 mM SDS, 40 mM Tris, 8 mM acetate (pH 7.0), 0 – 90 μM peptide, room temperature"}, "wild-type APP-TM peptide [11]": {"molecular_target": "B1", "experiment": "FRET or BRET; mixed: Trp-labelled wild-type with equimolar Edans-labelled mutant peptide in 20 mM SDS; A/D ratio against total peptide concentration (V717G) and at 50 μM total peptide (all mutants); baseline A/D 0.24 for non-interacting peptides", "conditions": "both partners purified"}, "[12]": {"conditions": "0, 20 or 100 μM peptide, overnight"}}, "note": "“Also recorded” adds a separate entry of the source. Ends that are not written are not given here. Lys‑tag = not defined here", "data": [{"molecule": "Lys-tag(W/EEDANS)GAIIGLMVGGVVIAIVIGITLVML Lys-tag [T714I, FAD mutant T714I APP-TM peptide with N- and C-terminal oligo-lysine tags]", "values": [{"measurement": "Relative dimer stability", "setting": "[1]; among wild-type and FAD mutants tested, SDS micelles", "result": "least stable dimer"}, {"measurement": "Kd", "setting": "[1]", "result": 395, "unit": "µM"}, {"measurement": "Oligomeric state by SDS-PAGE", "setting": "[2]", "result": "predominantly monomeric"}, {"measurement": "Solubility", "setting": "[3]", "result": "only soluble in the presence of SDS"}]}, {"molecule": "Lys-tag(W/EEDANS)GAIIGLMVGGVVIATVIFITLVML Lys-tag [V717F, FAD mutant V717F APP-TM peptide with N- and C-terminal oligo-lysine tags]", "values": [{"measurement": "Kd", "setting": "[1]", "result": 125, "unit": "µM"}, {"measurement": "Oligomeric state by SDS-PAGE", "setting": "[2]", "result": "predominantly monomeric"}, {"measurement": "Solubility", "setting": "[3]", "result": "only soluble in the presence of SDS"}]}, {"molecule": "Lys-tag(W/EEDANS)GAIIGLMVGGVVIATVIGITLVML Lys-tag [V717G, FAD mutant V717G APP-TM peptide with N- and C-terminal oligo-lysine tags]", "values": [{"measurement": "Total peptide concentration at which A/D ratio shows signs of saturation (hetero-oligomerization)", "setting": "wild-type APP-TM peptide [4]", "result": "above 50 μM"}, {"measurement": "Oligomeric state by SDS-PAGE", "setting": "[2]", "result": "populated both monomer and dimer states"}, {"measurement": "Oligomeric state by SDS-PAGE, concentration range", "setting": "[2]", "result": "formed monomer-dimer mixtures across the same concentration range"}, {"measurement": "Concentration dependence of Aβ reduction", "setting": "Aβ40 and Aβ42 production; [12]", "result": "strong concentration dependence"}, {"measurement": "Inhibitory effect on Aβ42 versus Aβ40 production", "setting": "Aβ40 and Aβ42 production; [12]", "result": "greater inhibitory effect on Aβ42 production (Fig. 7B) than on Aβ40 production"}, {"measurement": "Suppression of Aβ production relative to wild-type peptide", "setting": "Aβ40 and Aβ42 production; [12]", "result": "greater than that of the wild-type peptide; also recorded: significantly greater inhibition of Aβ production than the wild-type peptide"}, {"measurement": "Effect on levels of Aβ (Aβ40 and Aβ42)", "setting": "Aβ40 and Aβ42 production", "result": "drastic reduction in the levels of Aβ relative to control samples"}, {"measurement": "Effect on Aβ42/40 ratio", "setting": "Aβ40 and Aβ42 production; [12]", "result": "reduction in the Aβ42/40 ratio relative to control samples"}, {"measurement": "Cell survival / viability", "setting": "[5]", "result": "neither peptide caused a reduction in cell survival"}]}, {"molecule": "Lys-tag(W/EEDANS)GAIIGLMVGGVVIATVIVITLVML Lys-tag [wild-type, APP-TM peptide, residues 700 to 723 of human APP, with N- and C-terminal oligo-lysine tags; Trp or Glu-EDANS labeled]", "values": [{"measurement": "FRET signature (donor quenching, acceptor sensitization) in phospholipid bilayers", "setting": "[6]", "result": "Typical donor quenching and acceptor sensitization was observed"}, {"measurement": "Oligomeric state by SDS-PAGE", "setting": "[2]", "result": "formed stable dimers"}, {"measurement": "Oligomeric state by SDS-PAGE, concentration range", "setting": "[2]", "result": "predominantly dimeric under all concentrations tested"}, {"measurement": "Concentration dependence of Aβ reduction", "setting": "Aβ40 and Aβ42 production; [12]", "result": "strong concentration dependence"}, {"measurement": "Inhibitory effect on Aβ42 versus Aβ40 production", "setting": "Aβ40 and Aβ42 production; [12]", "result": "greater inhibitory effect on Aβ42 production (Fig. 7B) than on Aβ40 production"}, {"measurement": "Effect on levels of Aβ (Aβ40 and Aβ42)", "setting": "Aβ40 and Aβ42 production", "result": "drastic reduction in the levels of Aβ relative to control samples"}, {"measurement": "Effect on Aβ42/40 ratio", "setting": "Aβ40 and Aβ42 production; [12]", "result": "reduction in the Aβ42/40 ratio relative to control samples"}, {"measurement": "Cell survival / viability", "setting": "[5]", "result": "neither peptide caused a reduction in cell survival"}]}, {"molecule": "T714I APP-TM peptide", "values": [{"measurement": "Kd", "setting": "[7]", "result": 395, "unit": "µM"}]}, {"molecule": "B1", "values": [{"measurement": "Kd", "setting": "[8]", "result": 10.3, "unit": "µM"}, {"measurement": "stoichiometry N", "setting": "[9]", "result": 2}]}, {"molecule": "B2", "values": [{"measurement": "Kd", "setting": "[10]", "result": 125, "unit": "µM"}, {"measurement": "binding result", "setting": "wild-type APP-TM peptide [11]", "result": "binds"}]}, {"molecule": "B3", "values": [{"measurement": "Kd", "setting": "[8]", "result": 20.4, "unit": "µM"}, {"measurement": "stoichiometry N", "setting": "[9]", "result": 2}, {"measurement": "binding result", "setting": "wild-type APP-TM peptide [11]", "result": "binds"}]}]}
